Source: patent US5244898A, “Benzoheterocyclic compounds” (Otsuka Pharmaceutical Co., Ltd., priority 1991, dated 1993)
Structures can show the parent of a compound that is named as a salt.

target: T1, V2 Receptor (Rattus norvegicus, UniProt Q00788); assay: V2 Receptor Binding Assay ([3H]-Arg-vasopressin, rat kidney plasma membrane); details: 4° C., pH 8.0
T1 construct: rat kidney plasma membrane preparations; from tissue; host or cells: rat kidney plasma membranes
T1 sequence (Q00788 whole entry): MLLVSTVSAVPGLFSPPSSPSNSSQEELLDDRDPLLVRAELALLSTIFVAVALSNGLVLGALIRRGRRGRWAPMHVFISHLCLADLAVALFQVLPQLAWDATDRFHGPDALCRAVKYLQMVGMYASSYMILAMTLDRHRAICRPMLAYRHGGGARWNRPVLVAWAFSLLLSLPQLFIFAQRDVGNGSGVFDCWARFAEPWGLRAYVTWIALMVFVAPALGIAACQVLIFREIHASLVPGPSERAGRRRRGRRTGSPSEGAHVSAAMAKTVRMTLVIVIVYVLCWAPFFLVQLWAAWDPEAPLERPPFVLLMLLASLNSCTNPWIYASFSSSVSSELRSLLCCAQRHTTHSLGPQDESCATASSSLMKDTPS
Experimental: Chem., 253, 3211 (1978)], the plasma membrane (100000 dpm, 4×10^-10M) of [^3 H]-Arg-vasopressin and a test compound (0.6 mg, 10^-10 -10^-5 M) are incubated at 4° C. for 3 hours in 100 mM Tris-HCl buffer pH: 8.0 (250 μl ) containing 5 mM MgCl2, 1 mM EDTA and 0.1 % BSA. After incubation, the mixture is filtered using the glass filter (GF/F) so as to separate the membrane preparation combining with vasopressin and then washed twice with the buffer (5 ml). This glass filter is taken out and mixed with liquid scintillation cocktail. The amount of [^3 H]-vasopressin combining with the membrane is measured by liquid scintillation counter and the rate of the inhibitory effect of the test compound is estimated according to the following equation. [formula]
(§1) C1 : The amount of [^3 H]-vasopressin combining with the membrane in the presence of the test compound of a known amount.
(§2) C0 : The amount of [^3 H]-vasopressin combining with the membrane in the absence of the test compound.
B1 : The amount of [3H-vasopressin combining with the membrane in the presence of the excess amount of vasopressin (10^-6 M).
(§3) The results are expressed as IC50 value, which is the concentration of the test compound required to achieve the inhibitory effect in the rate of 50%.

Row | SMILES | IC50 [µM]
1 | CSCC[C@H](N)C(=O)OC1CCCN(C(=O)c2ccc(NC(=O)c3ccccc3C)cc2Cl)c2ccccc21 (single isomer, unassigned) [Test Compound 10, 5-(L-Methionyloxy)-1-[2-chloro-4-(2-methylbenzoylamino)benzoyl]-2,3,4,5-tetrahydro-1H-benzazepine hydrochloride] | 0.083
2 | Cc1ccccc1C(=O)Nc1ccc(C(=O)N2CCCC(OC(=O)[C@@H]3CCCN3)c3ccccc32)c(Cl)c1 (single isomer, unassigned) [Test Compound 12, 5-(L-Prolyloxy)-1-[2-chloro-4-(2-methylbenzoylamino)benzoyl]-2,3,4,5-tetrahydro-1H-benzazepine hydrochloride] | 0.009
3 | COc1cc(NC(=O)c2ccccc2C)ccc1C(=O)N1CCCC(OC(=O)[C@@H](N)CCSC)c2cc(Cl)ccc21 (single isomer, unassigned) [Test Compound 13, 5-(L-Methionyloxy)-7-chloro-1-[2-methoxy-4-(2-methylbenzoylamino)benzoyl]-2,3,4,5-tetrahydro-1H-benzazepine hydrochloride] | 0.006
4 | CSCC[C@H](N)C(=O)OC1CCCN(C(=O)c2ccc(NC(=O)c3ccccc3C)cc2C)c2ccc(Cl)cc21 (single isomer, unassigned) [Test Compound 14, 5-(L-Methionyloxy)-7-chloro-1-[2-methyl-4-(2-methylbenzoylamino)benzoyl]-2,3,4,5-tetrahydro-1H-benzazepine hydrochloride] | 0.011
5 | Cc1ccccc1C(=O)Nc1ccc(C(=O)N2CCCC(OC(=O)[C@@H](N)C(C)C)c3cc(Cl)ccc32)c(C)c1 (single isomer, unassigned) [Test Compound 15, 5-(L-Valyloxy)-7-chloro-1-[2-methyl-4-(2-methylbenzoylamino)benzoyl]-2,3,4,5-tetrahydro-1H-benzazepine hydrochloride] | 0.014
6 | CN(C)C1CCCN(C(=O)c2ccc(NC(=O)Cc3ccccc3Cl)cc2)c2ccccc21 (stereo not drawn) [Test Compound 3, 5-Dimethylamino-1-{4-[2-(2-chlorophenyl)acetylamino]benzoyl}-2,3,4,5-tetrahydro-1H-benzazepine] | 0.061
7 | COc1ccccc1CC(=O)Nc1ccc(C(=O)N2CCCC(N(C)C)c3ccccc32)cc1 (stereo not drawn) [Test Compound 4, 5-Dimethylamino-1-{4-[2-(2-methoxyphenyl)acetylamino]benzoyl}-2,3,4,5-tetrahydro-1H-benzazepine] | 0.061
8 | CN(C)C1CCCN(C(=O)c2ccc(NC(=O)Cc3ccccc3F)cc2)c2ccccc21 (stereo not drawn) [Test Compound 5, 5-Dimethylamino-1-{4-[2-(2-fluorophenyl)acetylamino]benzoyl}-2,3,4,5-tetrahydro-1H-benzazepine] | 0.059
9 | CN(C)C1CCCN(C(=O)c2ccc(NC(=O)Cc3c(Cl)cccc3Cl)cc2)c2ccccc21 (stereo not drawn) [Test Compound 6, 5-Dimethylamino-1-{4-[2-(2,6-dichlorophenyl)acetylamino]benzoyl}-2,3,4,5-tetrahydro-1H-benzazepine] | 0.024
10 | CN(C)C1CCCN(C(=O)c2ccc(NC(=O)Cc3ccccc3[N+](=O)[O-])cc2)c2ccccc21 (stereo not drawn) [Test Compound 7, 5-Dimethylamino-1-{4-[2-(2-nitrophenyl)acetylamino]benzoyl}-2,3,4,5-tetrahydro-1H-benzazepine] | 0.14
11 | CN(C)C1CCCN(C(=O)c2ccc(NC(=O)c3ccccc3Cl)cc2Cl)c2ccc(O)cc21 (stereo not drawn) [Test Compound 8, 5-Dimethylamino-7-hydroxy-1-[2-chloro-4-(2-chlorobenzoylamino)benzoyl]-2,3,4,5-tetrahydro-1H-benzazepine] | 0.25
12 | Cc1ccccc1C(=O)Nc1ccc(C(=O)N2CCCC(OC(=O)[C@H](C)N)c3ccccc32)c(Cl)c1 (stereo partly drawn) [Test Compound 9, 5-(L-Alanyloxy)-1-[2-chloro-4-(2-methylbenzoylamino)benzoyl]-2,3,4,5-tetrahydro-1H-benzazepine hydrochloride] | 0.017
13 | CC(=O)Oc1ccc2c(c1)C(N(C)C)CCCN2C(=O)c1ccc(NC(=O)c2ccccc2Cl)cc1Cl (stereo not drawn) [Test Compound 11] | 0.11
14 | Cc1ccccc1CC(=O)Nc1ccc(C(=O)N2CCCC(O)c3cc(Cl)ccc32)c(C)c1 (stereo not drawn) [Test Compound 16, 5-Hydroxy-7-chloro-1-{2-methyl-4-[2-(2-methylphenyl)acetylamino]benzoyl}-2,3,4,5-tetrahydro-1H-benzazepine] | 0.004
15 | COc1cc(NC(=O)c2ccccc2C)ccc1C(=O)N1CCCC(OC(=O)CN2CCOCC2)c2cc(Cl)ccc21 (stereo not drawn) [Test Compound 17, 5-(2-Morpholinoacetyloxy)-7-chloro-1-[2-methoxy-4-(2-methylbenzoylamino)benzoyl]-2,3,4,5-tetrahydro-1H-benzazepine hydrochloride] | 0.012
16 | O=C(Nc1ccc(C(=O)N2CCCC(O)(CO)c3cc(O)ccc32)c(Cl)c1)c1ccccc1Cl (stereo not drawn) [Test Compound 19, 5,7-Dihydroxy-5-hydroxymethyl-1-[2-chloro-4-(2-chlorobenzoylamino)benzoyl]-2,3,4,5-tetrahydro-1H-benzazepine] | 2.8
17 | CN(C)C(=O)COc1ccc2c(c1)C(N(C)C)CCCN2C(=O)c1ccc(NC(=O)c2ccccc2Cl)cc1Cl (stereo not drawn) [Test Compound 20, 5-Dimethylamino-7-dimethylaminocarbonylmethoxy-1-[2-chloro-4-(2-chlorobenzoylamino)benzoyl]-2,3,4,5 tetrahydro-1H-benzazepine] | 5.6
18 | CCOC(=O)CNC(=O)COC1CCCN(C(=O)c2ccc(NC(=O)c3ccccc3C)cc2Cl)c2ccc(F)cc21 (stereo not drawn) [Test Compound 21, 5-Ethoxycarbonylmethylaminocarbonylmethoxy-7-fluoro-1-[2-chloro-4-(2-methylbenzoylamino)benzoyl]-2,3,4,5-tetrahydro-1H-benzazepine] | 0.006
19 | Cc1ccccc1C(=O)Nc1ccc(C(=O)N2CCCC(OCC(=O)NCC(=O)O)c3cc(F)ccc32)c(Cl)c1 (stereo not drawn) [Test Compound 22, 5-Carboxymethylaminocarbonylmethoxy-7-fluoro-1-[2-chloro-4-(2-methylbenzoylamino)benzoyl]-2,3,4,5-tetrahydro-1H-benzazepine] | 0.018
20 | COC(=O)[C@@H]1CCCN1C(=O)COC1CCCN(C(=O)c2ccc(NC(=O)c3ccccc3C)cc2Cl)c2ccc(F)cc21 (stereo partly drawn) [Test Compound 23, 5-[(2-β-Methoxycarbonyl)-1-pyrrolidinylcarbonylmethoxy]-7-fluoro-1-[2-chloro-4-(2-methylbenzoylamino)benzoyl]-2,3,4,5-tetrahydro-1H-benzazepine] | 0.011
21 | COc1cc(NC(=O)c2ccccc2Cl)ccc1C(=O)N1CCCC(CC(=O)O)c2cc(Cl)ccc21 (stereo not drawn) [Test Compound 31, 5-Carboxymethyl-7-chloro-1-[2-methoxy-4-(2-chlorobenzoylamino)benzoyl]-2,3,4,5-tetrahydro-1H-benzazepine] | 0.019
22 | Cc1ccccc1C(=O)Nc1ccc(C(=O)N2CCCC(OCCCN3CCOCC3)c3cc(F)ccc32)c(C)c1 (stereo not drawn) [Test Compound 35, 5-(3-Morpholinopropoxy)-7-fluoro-1-[2-methyl-4-(2-methylbenzoylamino)benzoyl]-2,3,4,5-tetrahydro-1H-benzazepine] | 0.0062
23 | Cc1ccccc1C(=O)Nc1ccc(C(=O)N2CCCC(OCCCn3ccnc3)c3cc(F)ccc32)c(C)c1 (stereo not drawn) [Test Compound 36, 5-[3-(1-Imidazolyl)propoxy]-7-fluoro-1-[2-methyl-4-(2-methylbenzoylamino)benzoyl]-2,3,4,5-tetrahydro-1H-benzazepine] | 0.0076
24 | Cc1ccccc1C(=O)Nc1ccc(C(=O)N2CCCC(CC(=O)N3CCN(C)CC3)c3cc(Cl)ccc32)c(C)c1 (stereo not drawn) [Test Compound 41, 5-[(4-Methyl-1-piperazinyl)carbonylmethyl]-7-chloro-1-[2-methyl-4-(2-methylbenzoylamino]benzoyl]-2,3,4,5-tetrahydro-1H-benzazepine] | 0.013
25 | COc1cc(NC(=O)c2ccccc2OCCCCN2CCN(C(C)=O)CC2)ccc1C(=O)N1CCCCc2cc(Cl)ccc21 [Test Compound 49] | 0.052
26 | CC(=O)N1CCN(CCC2CCCN(C(=O)c3ccc(NC(=O)c4ccccc4C)cc3C)c3ccc(Cl)cc32)CC1 (stereo not drawn) [Test Compound 53, 5-[2-(1-Acetyl-1-piperazinyl)ethyl]-7-chloro-1-[2-methyl-4-(2-methylbenzoylamino)benzoyl]-2,3,4,5-tetrahydro-1H-benzazepine hydrochloride] | 0.029
27 | Cc1ccccc1C(=O)Nc1ccc(C(=O)N2CCCC(OCC(=O)NC3CCNCC3)c3cc(Cl)ccc32)c(C)c1 (stereo not drawn) [Test Compound 57, 7-Chloro-5-[(4-piperidinyl)aminocarbonylmethoxy]-1-[2-methyl-4-(2-methylbenzoylamino)benzoyl]-2,3,4,5-tetrahydro-1H-benzazepine hydrochloride] | 0.009
28 | Cc1ccccc1C(=O)Nc1ccc(C(=O)N2CCCC(OCC(=O)NC3CCN(C)CC3)c3cc(Cl)ccc32)c(C)c1 (stereo not drawn) [Test Compound 59, 5-[(1-Methyl-4-piperidinyl)aminocarbonyl-methoxy]-7-chloro-1-[2-methyl-4-(2-methylbenzoylamino)-benzoyl]-2,3,4,5-tetrahydro-1H-benzazepine] | 0.009
29 | Cc1ccccc1C(=O)Nc1ccc(C(=O)N2CCCC(CC(=O)NCC(N)=O)c3cc(Cl)ccc32)c(C)c1 (stereo not drawn) [Test Compound 62, 5-(Carbamoylmethylaminocarbonylmethyl)-7-chloro-1-[2-methyl-4-(2-methylbenzoylamino)benzoyl]-2,3,4,5-tetrahydro-1H-benzazepine] | 0.003

target: V1 Receptor (Rattus norvegicus, UniProt P30560); assay: V1 Receptor Binding Assay ([3H]-Arg-vasopressin, rat liver plasma membrane); details: 37° C., 10 minutes, pH 8.0
Sequence (P30560 whole entry): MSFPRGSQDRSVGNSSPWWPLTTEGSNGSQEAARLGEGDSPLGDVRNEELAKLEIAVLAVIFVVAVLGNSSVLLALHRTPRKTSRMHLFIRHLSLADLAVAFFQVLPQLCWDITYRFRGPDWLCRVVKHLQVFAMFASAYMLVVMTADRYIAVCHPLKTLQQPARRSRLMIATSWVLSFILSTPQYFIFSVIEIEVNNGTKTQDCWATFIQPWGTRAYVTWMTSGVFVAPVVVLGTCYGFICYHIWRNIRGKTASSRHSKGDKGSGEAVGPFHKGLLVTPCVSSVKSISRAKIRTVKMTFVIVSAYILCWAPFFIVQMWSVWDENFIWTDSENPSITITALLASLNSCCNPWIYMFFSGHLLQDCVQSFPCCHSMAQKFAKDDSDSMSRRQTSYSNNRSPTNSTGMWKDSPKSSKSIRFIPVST
Experimental: After incubation, the mixture is filtered three times using the glass filter (GF/F) so as to separate the membrane preparation combining with vasopressin and then washed with the buffer (5 ml). This glass filter is taken out and mixed with liquid scintillation cocktail. The amount of [^3 H]-vasopressin combining with the membrane is measured by liquid scintillation counter and the rate of the inhibitory effect of the test compound is estimated according to the following equation.
as §1, §2
B1 : The amount of [^3 H]-vasopressin combining with the membrane in the presence of the excess amount of vasopressin (10^-6 M).
as §3

Row | SMILES | IC50 [µM]
30 | COc1cc(NC(=O)c2ccccc2C)ccc1C(=O)N1CCCC(OC(=O)[C@@H](N)CCSC)c2cc(Cl)ccc21 (single isomer, unassigned) [Test Compound 13, 5-(L-Methionyloxy)-7-chloro-1-[2-methoxy-4-(2-methylbenzoylamino)benzoyl]-2,3,4,5-tetrahydro-1H-benzazepine hydrochloride] | 0.02
31 | CSCC[C@H](N)C(=O)OC1CCCN(C(=O)c2ccc(NC(=O)c3ccccc3C)cc2C)c2ccc(Cl)cc21 (single isomer, unassigned) [Test Compound 14, 5-(L-Methionyloxy)-7-chloro-1-[2-methyl-4-(2-methylbenzoylamino)benzoyl]-2,3,4,5-tetrahydro-1H-benzazepine hydrochloride] | 0.22
32 | Cc1ccccc1C(=O)Nc1ccc(C(=O)N2CCCC(OC(=O)[C@@H](N)C(C)C)c3cc(Cl)ccc32)c(C)c1 (single isomer, unassigned) [Test Compound 15, 5-(L-Valyloxy)-7-chloro-1-[2-methyl-4-(2-methylbenzoylamino)benzoyl]-2,3,4,5-tetrahydro-1H-benzazepine hydrochloride] | 0.18
33 | CN(C)C1CCCN(C(=O)c2ccc(NC(=O)Cc3c(Cl)cccc3Cl)cc2)c2ccccc21 (stereo not drawn) [Test Compound 6, 5-Dimethylamino-1-{4-[2-(2,6-dichlorophenyl)acetylamino]benzoyl}-2,3,4,5-tetrahydro-1H-benzazepine] | 0.12
34 | Cc1ccccc1CC(=O)Nc1ccc(C(=O)N2CCCC(O)c3cc(Cl)ccc32)c(C)c1 (stereo not drawn) [Test Compound 16, 5-Hydroxy-7-chloro-1-{2-methyl-4-[2-(2-methylphenyl)acetylamino]benzoyl}-2,3,4,5-tetrahydro-1H-benzazepine] | 0.32
35 | COc1cc(NC(=O)c2ccccc2C)ccc1C(=O)N1CCCC(OC(=O)CN2CCOCC2)c2cc(Cl)ccc21 (stereo not drawn) [Test Compound 17, 5-(2-Morpholinoacetyloxy)-7-chloro-1-[2-methoxy-4-(2-methylbenzoylamino)benzoyl]-2,3,4,5-tetrahydro-1H-benzazepine hydrochloride] | 0.021
36 | COc1cc(C(=O)N2CCCCc3cc(Cl)ccc32)ccc1NC(=O)c1ccccc1OCCCCN1CCN(C(C)=O)CC1 [Test Compound 56, 7-Chloro-1-[3-methoxy-4-{2-[4-(4-acetyl-1-piperazinyl)butoxy]benzoylamino}benzoyl]-2,3,4,5-tetrahydro-1H-benzazepine] | 0.007
